Results on 14 compounds are retold here after patent US8815829B2, “3′-azido purine nucleotide prodrugs for treatment of viral infections” (priority 2008, dated 2014).

Data set [1] deals with adenosine deaminase. Description: Adenosine deaminase assay (deamination of nucleosides). The class given is in vitro ADME. As to the method:
In order to determine if these 6-substituted compounds are converted to G analogs by the enzyme adenosine deaminase, a series of enzyme kinetics experiments were undertaken.
To determine the propensity for deamination of the APN nucleosides by adenosine deaminase, nucleoside compounds were incubated with the commercially available purified enzyme, and the reaction was followed spectrophotometrically. Reaction conditions were 50 mM potassium phosphate, pH 7.4, with 50 μM APN nucleoside in 0.5 mL at 25° C. Reaction time was 7 minutes with 0.002 units of enzyme and 120 minutes with 0.2 units of enzyme. (The unit definition of adenosine deaminase is one unit will deaminate 1.0 μmol of adenosine to inosine per minute at pH 7.5 at 25° C.) Deoxyadenosine was the positive control which was 59% deaminated under the given conditions in 7 minutes with 0.002 units of enzyme. Deoxyguanosine was the negative control. Optical density was measured at 265 nm or 285 nm. The difference in optical density between the beginning and the end of the experiment was divided by the extinction coefficient then multiplied by the volume of the reaction to determine the number of mols of substrate transformed into product. Mols of product were divided by mols of substrate equivalent to a 100% complete reaction then multiplied by 100 to obtain percent deamination. The limit of detection was 0.001 optical density units.

The test system of data set [2] is Vero cells. Kind of data set: Cytotoxicity assay in Vero cells. The class given is cell-based.
Data set [3] has as its system HSV-1. Kind of data set: HSV-1 drug susceptibility assay. The class given is cell-based. From the text:
Agents Chemother. […] K., Otto, M. J., Schinazi, R. F. “Antiviral activities and cellular toxicities of modified 2′,3′-dideoxy-2′,3′-didehydrocytidine analogs” Antimicrob. Agents Chemother. 2002, 46, 3854-60. • ^cHSV-1 drug susceptibility assay was done as previously described in: Schinazi, R. F., Peters, J., Williams, C. C., Chance, D., Nahmias, A. J. “Effect of combinations of acyclovir with vidarabine or its 5′-monophosphate on herpes simplex virus in cell culture and in mice.” Antimicrob. Agents Chemother. 1982, 22, 499-507. • ^dHCV Replicon Assay^1: Huh 7 Clone B cells containing HCV Replicon RNA were seeded in a 96-well plate at 5000 cells/well, and the compounds were tested at 10 μM in triplicate immediately after seeding. Following five days incubation (37° C., 5% CO2), total cellular RNA was isolated by using versaGene RNA purification kit from Gentra. Replicon RNA and an internal control (TaqMan rRNA control reagents, Applied Biosystems) were amplified in a single step multiplex Real Time RT-PCR Assay. The antiviral effectiveness of the compounds was calculated by subtracting the threshold RT-PCR cycle of the test compound from the threshold RT-PCR cycle of the no-drug control (ΔCtHCV). A ΔCt of 3.3 equals a 1-log reduction (equal to 90% less starting material) in Replicon RNA levels. The cytotoxicity of the compounds was also calculated by using the ΔCt rRNA values. 77 (2′-Me-C) was used as the control. To determine EC90 and IC50 values^2, ΔCt: values were first converted into fraction of starting material^3 and then were used to calculate the % inhibition.

The test system of data set [4] is HIV-1/LAI. Description: Anti-HIV-1 assay in PBM cells. The class given is cell-based. As to the method:
Stock solutions (20-40 mM) of the compounds were prepared in sterile DMSO and then diluted to the desired concentration in growth medium. Cells were infected with the prototype HIV-1LAI at a multiplicity of infection of 0.01. Virus obtained from the cell supernatant was quantified on day 6 after infection by a reverse transcriptase assay using (rA)n·(dT)12-18 as template-primer. […] The antiviral EC50 and EC90 were obtained from the concentration-response curve using the median effective method described previously (see Chou T.-C. & Talalay P. Adv. Enzyme Regul. 1984, 22, 27-55; Belen'kii M. S. & Schinazi R. F. Antiviral Res. 1994, 25, 1-11).

Data set [5] concerns HIV-2/pROD10. Kind of data set: HIV-2 drug susceptibility in PBM cells. The class given is cell-based. To be noted: Human immunodeficiency virus 2, PBMC.
Data set [6] deals with PBM cells. The following applies: human, 4 h, 50 μM.
For data set [7], the system named is HBV. Kind of data set: Anti-HBV assay (AD-38 cell line). To be noted: Hepatitis B virus. The class given is cell-based. As to the method:
The anti-HBV activity of the compounds was determined by treating the AD-38 cell line carrying wild type HBV under the control of tetracycline (see Ladner S. K., Otto M. J., Barker C. S., Zaifert K., Wang G. H., Guo J. T., Seeger C. & King R. W. Antimicrob. Agents Chemother. 1997, 41, 1715-20). Removal of tetracycline from the medium [Tet (−)] results in the production of HBV. The levels of HBV in the culture supernatant fluids from cells treated with the compounds were compared with that of the untreated controls. Control cultures with tetracycline [Tet (+)] were also maintained to determine the basal levels of HBV expression.

The test system of data set [8] is CEM cells. Kind of data set: Cytotoxicity assay in CEM cells. The class given is cell-based, human. The following applies: Tables 2-4; read-out: CEM IC50.
Data set [9] concerns PBM cells. Kind of data set: Cytotoxicity assay in PBM cells. The class given is cell-based, human. To be noted: Tables 2-4; read-out: PBM IC50.
The mark [10] stands for this setting: 50 μM nucleoside, pH 7.4, 25° C., 0.002 units enzyme.
[11] abbreviates: 50 μM nucleoside, pH 7.4, 25° C., 0.2 units enzyme.
Where [12] appears, read: Human immunodeficiency virus 1, PBMC, PBM cells, read-out: HIV-1/LAI (PBM) EC50.
The mark [13] stands for this setting: Human immunodeficiency virus 1, PBMC, PBM cells, read-out: HIV-1/LAI (PBM) EC90.

Read-outs that look alike come from different tables or passages of the source.

As for `Nc1ncnc2c1ncn2[C@H]1C[C@H](O)[C@@H](CO)O1` [2Õ-deoxy- adenosine, Deoxyadenosine, reference compound], the “Deamination in 7 min (0.002 units Adenosine Deaminase)” value (shortened to “Deamination in 7 min”) is 59.30% in data set [1] (setting [10]) and 59% in data set [1] (50 μM nucleoside, pH 7.4, 25° C., 0.002 units enzyme, listed as Deoxyadenosine). The “Deamination in 120 min (0.2 units Adenosine Deaminase)” value (shortened to “Deamination in 120 min”) in data set [1] (setting [11]) is 105.50%.
Consider `Nc1nc(O)c2ncn([C@H]3C[C@H](O)[C@@H](CO)O3)c2n1` [2Õ-deoxy- guanosine, Deoxyguanosine, reference compound], for which the “Deamination in 7 min” value in data set [1] (setting [10]) is given as “below level of detection”. Moreover, the “Deamination in 120 min” value in [1] (setting [11]) is recorded as “below level of detection”.
Regarding `Nc1nc2c(ncn2COCCO)c(=O)[nH]1` [ACV, reference compound], the IC50 in data set [2] (Table 5, read-out: Toxicity IC50 Vero) was above 100 µM. In [3], the EC50 came to 0.16 µM and the EC90 was determined as 0.42 µM.
Take `C=CCNc1nc(N)nc2c1ncn2[C@H]1CC(N=[N+]=[N-])[C@@H](CO)O1` (stereo partly drawn) [Compound 62, 2-Amino-9-(3′-azido-2′,3′-dideoxy-β-D-erythro-pentofuranosyl)-6-allylamino-9H-purine]: in [1] (50 μM, pH 7.4), the “Deamination in 120 min” value came to 7.60%. Besides, the values for the EC50 in data set [4] (setting [12]), in data set [5] and in data set [7] were 0.5 µM, 0.71 µM and above 10 µM, respectively. The EC90 was 4.3 µM in data set [4] (setting [13]), 7.4 µM in data set [5] and above 10 µM in [7]. For the same compound, the “nucleotides detected (LC/MS)” value in data set [6] is “detection of RFS-457-DP and RFS-457-TP”. In data set [6], the “species not detected (LC/MS)” value is listed as “No RFS-427, RFS-427-MP, RFS-427-DP, or RFS-427-TP were detected”.
For `C=CCN(C)c1nc(N)nc2c1ncn2[C@H]1CC(N=[N+]=[N-])[C@@H](CO)O1` (stereo partly drawn) [Compound 63, 2-Amino-9-(3′-azido-2′,3′-dideoxy-β-D-erythro-pentofuranosyl)-6-N-methylallylamino-9H-purine], the figures for the EC50 in data set [4] (setting [12]), in [5] and in data set [7] were 0.4 µM, 2.4 µM and above 10 µM, respectively. Also, the EC90 in data set [4] (setting [13]) was 1.5 µM; in data set [5] it was 6.1 µM; in data set [7], above 10 µM. For the same compound, the “nucleotides detected (LC/MS)” value in data set [6] is “detection of RFS-457-TP”. In data set [6], the “species not detected (LC/MS)” value is “No RFS-464, RFS-464-MP, RFS-464-DP, or RFS-464-TP were detected”.
In the case of `[N-]=[N+]=NC1C[C@H](n2cnc3c(NCCCCCO)nc(N)nc32)O[C@@H]1CO` (stereo partly drawn) [Compound 64, 2-Amino-9-(3′-azido-2′,3′-dideoxy-β-D-erythro-pentofuranosyl)-6-aminopentanol-9H-purine], the EC50 is 86.5 µM in [4] (Human immunodeficiency virus 1, PBMC, read-out: HIV-1/LAI (PBM) EC50, PBM cells); above 100 µM in data set [5]; above 10 µM in data set [7]. Also, the EC90 in data set [4] (Human immunodeficiency virus 1, PBMC, read-out: HIV-1/LAI (PBM) EC90, PBM cells) was above 10 µM; in data set [5] it was above 100 µM; in [7], above 10 µM.
For `CC(C)(CO)Nc1nc(N)nc2c1ncn2[C@H]1CC(N=[N+]=[N-])[C@@H](CO)O1` (stereo partly drawn) [Compound 65, 2-Amino-9-(3′-azido-2′,3′-dideoxy-β-D-erythro-pentofuranosyl)-6-N-2-methyl-2-amino-propanol-9H-purine], the EC50 in data set [4] (setting [12]) was 52.5 µM; in [5] it was above 100 µM; in data set [7], above 10 µM. Further, the EC90 in data set [4] (setting [13]) was above 10 µM; in data set [5], above 100 µM; in data set [7], above 10 µM.
As to `CC(CO)Nc1nc(N)nc2c1ncn2[C@H]1CC(N=[N+]=[N-])[C@@H](CO)O1` (some centres unmarked) [Compound 67], the EC50 is 59.9 µM in [4] (setting [12]), 51.6 µM in [5] and above 10 µM in [7]. The EC90 in [4] (setting [13]) was above 10 µM; in data set [5], above 100 µM; in [7] it was above 10 µM.
As to `CN(C)c1nc(N)nc2c1ncn2[C@H]1CC(N=[N+]=[N-])[C@@H](CO)O1` (some centres unmarked) [Compound 69], the “Conversion by / stability to adenosine deaminase” value in data set [1] is “stable to adenosine deaminase”. Further, the results for the EC50 in data set [4] (setting [12]), in data set [5] and in data set [7] were 0.21 µM, 2.5 µM and above 10 µM, respectively. Moreover, the EC90 in data set [4] (setting [13]) was 1.05 µM; in [5], 5.9 µM; in data set [7], above 10 µM.
As for `COc1nc(N)nc2c1ncn2[C@H]1CC(N=[N+]=[N-])[C@@H](CO)O1` (some centres unmarked) [Compound 70], in [1] (50 μM, pH 7.4), the “Deamination in 7 min” value is on record as 0.55 ± 5.8% and the “Deamination in 120 min” value turned out to be 130.22 ± 4.72%. In addition, in [6], the “nucleotides detected (LC/MS)” value is “detection of RFS-506-DP, RFS-457-DP, and RFS-457-TP”; the “species not detected (LC/MS)” value was “No RFS-506, RFS-506-MP, or RFS-506-TP were detected”.
As for `[N-]=[N+]=NC1C[C@H](n2cnc3c(NC4CC4)nc(N)nc32)O[C@@H]1CO` (some centres unmarked) [Compound 72], the “Deamination in 7 min” value in data set [1] (50 μM, pH 7.4) turned out to be 0.56%. In data set [1] (50 μM, pH 7.4), the “Deamination in 120 min” value is 33.40%. In addition, the EC50 in data set [4] (setting [12]) is 1.5 µM; in data set [5], 3.1 µM; in data set [7], above 10 µM. Further, the results for the EC90 in data set [4] (setting [13]), in data set [5] and in [7] were 8.8 µM, 15.8 µM and above 10 µM, respectively. The “nucleotides detected (LC/MS)” value in [6] is “detection of RFS-457-DP and RFS-457-TP”. Also, in data set [6], the “species not detected (LC/MS)” value was “No RFS-512, RFS-512-MP, RFS-512-DP, or RFS-512-TP were detected”.
Consider `[N-]=[N+]=NC1C[C@H](n2cnc3c(N)nc(N)nc32)O[C@@H]1CO` (stereo partly drawn) [Compound 73, β-D-3′-azido-2,6-diamino-2′,3′-dideoxypurine], for which, in [6], the major metabolite entry is “RFS-457-TP as the major metabolite”; the “nucleotides detected (LC/MS)” value is “detection of RFS-457, RFS-457-MP, RFS-457-DP, RFS-457-TP RFS-667-DP, and RFS-667-TP”; the “species not detected (LC/MS)” value is on record as “No RFS-667 or RFS-667-MP were detected”.
Regarding `COCCNc1nc(N)nc2c1ncn2[C@H]1CC(N=[N+]=[N-])[C@@H](CO)O1` (some centres unmarked) [Compound 74], the EC50 in data set [4] (setting [12]) came to 2.1 µM. Besides, in data set [4] (setting [13]), the EC90 was determined as 16.2 µM.
For `CCOC(=O)[C@H](C)NP(=O)(OC[C@H]1O[C@@H](n2cnc3c(N)nc(N)nc32)CC1N=[N+]=[N-])Oc1ccccc1` (some centres unmarked) [RS-783], the IC50 is above 100 µM in data set [2] (Chlorocebus sabaeus, Vero, read-out: Vero IC50); 12.1 µM in data set [8]; 9.6 µM in [9]. In addition, the EC50 in data set [4] (Tables 2-4, n = 3 for the MP prodrugs, read-out: HIV EC50) stood at 0.0034 µM. Moreover, the EC90 in data set [4] (Tables 2-4, n = 3 for the MP prodrugs, read-out: HIV EC90) was 0.035 µM.

The IC50 is the concentration that gives 50% inhibition.
